From patent US20040121965A1, “Method of treating resistant tumors” (Wyeth Holdings Corporation, priority 2002, published 2004)
Like-named read-outs stand apart in the source and are kept apart here.

How the values were obtained:
[1] = system: KB-3-1; assay: Cell survival assay (SRB), KB-3-1; type: cell-based, human
Summary of the method: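 IC50 for 50% growth inhibition after 3-day compound exposure, tested in duplicate. SRB protein staining of TCA-fixed cells (10% TCA, 1 hr, 4 °C), solubilised in Tris base and read by absorbance, was used as the survival read-out, with KB-3-1 grown in 20% FCS.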

[2] = system: KB-8-5 (MDR1+); assay: Cell survival assay (SRB), KB-8-5 (MDR1+); settings: for RR, relative resistance: IC50 KB-8-5 / IC50 KB-3-1, Table 3; for IC50: Homo sapiens
[3] = system: KB-V1 (MDR1++)
[4] = system: KB-V1 (MDR1++); assay: Cell survival assay (SRB), KB-V1 (MDR1++); settings: for RR, relative resistance: IC50 KB-V1 / IC50 KB-3-1, Table 3; for IC50: Homo sapiens
[5] = system: KB-8-5 (MDR1+)
[6] = system: KB-PTX-15+099; assay: Cell survival assay, KB-PTX-15+099 (paclitaxel-resistant, non-MDR); type: cell-based, human; settings: for Average Relative Resistance (RR): IC50 KB-PTX-15+099 / IC50 KB-3-1, less than 1 = increased sensitivity; for IC50: KB-PTX-15+099, Table 6, read-out: KB-PTX-15+099 IC50
[7] = system: KB-HTI-4.0; assay: Cell survival assay, KB-3-1 line made resistant to Example 129 (KB-HTI-4.0); type: cell-based, human; settings: for IC50: KB-3-1 line made resistant to Example 129, Table 8, read-out: KB-HTI-4.0 IC50; for (RR) relative resistance vs. parental cells: KB-HTI-4.0 vs KB-3-1
Source text: (§1) Cells lines with previously known mechanisms of resistance. […] Res. 8: 207-218,1996); KB-3-1 (parental derived from an epidermoid carcinoma), KB-8.5, KB-V1 (Akiyama S-I, Fojo A, Hanover J A, Pastan I, Gottesman M M. Isolation and genetic characterization of human KB cell lines resistant to multiple drugs. Somatic Cell Mol. Gen., 11: 117-126,1985; Shen D-W, Cardarelli C, Hwang J, Cornwell M, Richert N, Ishii S, Pastan I, Gottesman MM. […] J. Biol. Chem., 261: 7762-7770, 1986); and HL-60 (parental derived from human leukemia) and HL60/AR (McGrath T., Center M. S. Adriamycin resistance in HL60 cells in the absence of detectable P-glycoprotein. Biochem. Res. Commun., 145:1171-1176,1987); A549 and A549.EpoB40 (He L., Yang C.-P.H., Horwitz S. B. Mutations in p-tubulin map to domains involved in regulation of microtubule stability in epothilone-resistant cell lines. Molecular Cancer Therapeutics. 1: 3-10, 2001). HCT-15 human colon carcinoma and DLD-1 human colon carcinoma are obtained from American Tissue Culture Collection. The MX-1W carcinoma is a Wyeth variant orginally obtained as MX-1 breast carcinoma from the National Cancer Institute. Cell lines selected for resistance to Representative Example 129. KB-3-1 cells are selected for resistance to Example 129 by chronically exposing cells to increasing concentrations of Example 129.
(§2) 2.2. Cell Survival Assay: Standard Pharmacological Test Procedure. The concentration of candidate inhibitor required to inhibit 50% of cell growth (IC50) is done according to previously reported methods. […] Compounds are serially diluted into media as 2× stocks and 100 μl added to cells in duplicate. Compounds are incubated with cells for 3 days. At the end of the incubation period the sulforhodamine B (SRB) assay, which measures protein content as an assessment of cell survival, is performed as described previously (Skehan P, Storeng R, Scudiero D, Monks A, McMahon J, Vistica D, Warren J T, Bokesch H, Kenney S, Boyd MR. New calorimetric cytotoxicity assay for anticancer-drug screening. J Natl Cancer Inst 1990 Jul 4;82(13):1107-12) with some modification as follows. For KB-3-1 cells with 20% FCS, media is gently decanted and replaced with 200 μl of serum-free media mixed with cold 50% TCA for a final concentration of 10% TCA. The plates are incubated for 1 hr at 4° C., followed by washing 5 times in cold distilled water, then air dried overnight. The fixed cells are stained for 10 min with 80 μl of 0.04% SRB solution prepared in 1% glacial acetic acid. Stain is discarded and plates washed 5 times in 1% glacial acetic acid, then air-dried until completely dry. Stained cell product is dissolved in 150 μl of 10 mM Trizma Base and placed on a shaker for 20 minutes until fully dissolved. Absorbance is read on a Victor V multi-label plate reader (Perkin Elmer, Gaithersburg, Md.).
Cells are selected for resistance to Example 129 to understand the frequency and mechanistic basis of resistance.

[8] = system: MX-1W tumor; assay: Growth of tumors in nude mice, MX-1W xenograft; type: in vivo
Source text: 2.4. Growth of Tumors in Nude Mice.

[9] = system: Human Melanoma Carcinoma Lox; settings: staged LOX xenograft; at MTD ('<': MTD not achieved); days 11-15
Method: 2.4. Growth of Tumors in Nude Mice. […] In these experiments, xenografts are implanted subcutaneously into the flanks of nude mice. […] Relative tumor mass compared to controls are assessed during the 21-day post-staging period.
Groups of 5 female nu/nu mice are injected with 1.5×10^6 KB-3-1 (A) or Lox cells (B). […] Relative tumor growth is determined during the experiment and % T/C calculated. Statistical analyses are Student's t-test of treated time points vs. vehicle (*, P<0.05; **, P<0.01)

[10] = system: tumor cell lines; assay: cells; type: cell-based; settings: Five micromolar
Source text: as §1, §2

[11] = KB-3-1 cells (paclitaxel-sensitive parent), read-out: In vitro IC50 (nM) KB-3-1
[12] = Homo sapiens, KB 3-1, 72 h, amount of drug needed to kill 50% of cells after three days continuous exposure, Table 11, read-out: IC50 in parental cell line KB-3-1

CN[C@H](C(=O)N[C@H](C(=O)N(C)[C@H](/C=C(\C)C(=O)O)C(C)C)C(C)(C)C)C(C)(C)c1ccccc1 [Example 134, (E,4S)-4-[((2S)-3,3-dimethyl-2-{[(2S)-3-methyl-2-(methylamino)-3-phenylbutanoyl]amino}butanoyl)(methyl)amino]-2,5-dimethyl-2-hexenoic Acid]
IC50 ([1]; read-out: In vitro IC50 (nM) KB-3-1): 28 nM
Ratio KB85/KB [2]: 1.4
IC50 ([3]; human): 879 nM
Ratio KBV1/KB [4]: 31.3
IC50 ([5]; human): 39 nM

N,β,β-trimethyl-L-phenylalanyl-N^1-{(1S,2E)-4-[[(1S,2E)-3-carboxy-1-isopropylbut-2-enyl](methyl)amino]-1-isopropyl-3-methyl-4-oxobut-2-enyl-N^1,3-dimethyl-L-valinamide [Example 114]
IC50 [1, 11]: 55 nM
Ratio KB85/KB [2]: 3.5
IC50 [3]: > 3000 nM
IC50 [5]: 192 nM

CCOC(=O)/C(C)=C/[C@H](C(C)C)N(C)C(=O)[C@@H](NC(=O)[C@H](NC)C(C)(C)c1ccc(C)c(C)c1)C(C)(C)C [Example 13b, N,β,β-3,4-pentamethyl-D-phenylalanyl-N^1-[(1S,2E)4-ethoxy-1-isopropyl-3-methyl4-oxo-2-butenyl]-N^1,3-dimethyl-L-valinamide]
IC50 [1, 11]: 295 nM
Ratio KB85/KB [2]: 4.8
IC50 [3]: ≥ 3000 nM
Ratio KBV1/KB [4]: 10.2
IC50 [5]: 1410 nM

CC[C@H](C)[C@@H]([C@@H](CC(=O)N1CCC[C@H]1[C@H](OC)[C@@H](C)C(=O)N[C@@H](Cc1ccccc1)c1nccs1)OC)N(C)C(=O)[C@@H](NC(=O)[C@H](C(C)C)N(C)C)C(C)C [dolastatin-10]
Average Relative Resistance (RR) [6]: (0.30)
IC50 [6]: 0.012 ± 0.004 nM
increased sensitivity of KB-PTX-15+099 cells ([6]; vs KB-3-1): 3.4 fold
IC50 ([1]; KB-3-1, Table 6, read-out: KB-3-1 IC50): 0.041 ± 0.01 nM
IC50 ([1]; KB-3-1 parental, Table 8, read-out: KB-3-1 IC50): 0.03 ± 0.02 nM
RR, relative resistance [2]: 7.1
RR, relative resistance [4]: 573
IC50 [7]: 0.83 ± 0.33 nM
(RR) relative resistance vs. parental cells [7]: (28)

(2E,4S)-2,5-dimethyl4-(methyl{(2S)-2-[(N,β,1-trimethyl-L-phenylalanyl)amino]butanoyl}amino)hex-2-enoic Acid Trifluoroacetic Acid [Example 99]
IC50 [1, 11]: 60 nM
IC50 [3]: 1320 nM
IC50 [5]: 87 nM

CN[C@H](C(=O)N[C@H](C(=O)N(C)[C@H](/C=C(\C)C(=O)O)C(C)C)C(C)(C)C)C(C)(C)c1cccc(C)c1 [Example 8, N,β,β,3-Tetramethyl-L-phenylalanyl-N^1-[(1S,2E)-3-carboxy-1-isopropyl-2-butenyl]-N^1,3-dimethyl-L-valinamide]
IC50 [1, 12]: 0.3 nM
IC50 ([1]; Homo sapiens, KB 3-1, KB-3-1 cells (paclitaxel-sensitive parent), read-out: In vitro IC50 (nM) KB-3-1): 0.274 nM
Ratio KB85/KB [2]: 2.6
IC50 ([2]; MDR1, read-out: In vitro IC50 (nM) KB85): 0.699 nM
effect on growth of MX-1W (paclitaxel-resistant) tumor ([8]; mouse, in vivo): inhibited the growth
Activity in nude mice animal model (% T/C @ MTD on days 11-15) MX-1W ([8]; staged MX-1W xenograft, at MTD, days 11-15): 9%
Activity in nude mice animal model (% T/C @ MTD on days 11-15) LOX [9]: 2%
Ratio KBV1/KB [4]: 68.5
IC50 ([4]; read-out: In vitro IC50 (nM) KBV1): 18.7 nM

(E,4S)-4-[((2S)-3,3-dimethyl-2-{[(2S)-3-methyl-2-(methylamino)-3-(1-methyl-1H-ethyl-1H-indol-3-yl)butanoyl]amino}butanoyl)amino]-2,5-dimethyl-2-hexenoic Acid [Example 132]
IC50 [1, 11]: 0.51 nM
IC50 [3]: 890 nM

(2E,4S)4-[{(2R)-2-cyclohexyl-2-[(N,β,1-trimethyl-L-phenylalanyl)amino]ethanoyl}(methyl)amino]-2,5-dimethylhex-2-enoic Acid Trifluoroacetic Acid [Example 98]
IC50 [1, 11]: 133 nM
IC50 [3]: 2940 nM
IC50 [5]: 186 nM

COc1ccc(C(C#N)(CCCCCN2CCc3cc(OC)c(OC)cc3C2)Sc2ccc(C)cc2)cc1OC (centres unmarked)
effect on cell growth when given alone ([10]; KB-3-1, KB-85, KB-V1 (Table 4)): # has no inhibitory effect on cell growth when given alone. Data are the mean of two experiments.
effect on cell growth when given alone ([10]; MX-1W, DLD-1, HCT-15 (Table 2)): # Five micromolar 7-(6,7-dimethoxy-3,4-dihydro-1H-isoquinolin-2-yl)-2(3,4-dimethoxy-phenyl)-2-p-tolysulfanyl-heptanenitrile has no inhibitory effect on cell growth when given alone.

CC(=O)O[C@@]12CO[C@@H]1C[C@H](O)[C@@]1(C)C(=O)[C@H](O)C3=C(C)[C@@H](OC(=O)[C@H](O)[C@@H](NC(=O)OC(C)(C)C)c4ccccc4)C[C@@](O)([C@@H](OC(=O)c4ccccc4)[C@H]21)C3(C)C [docetaxel, reference compound]
IC50 ([6]; Homo sapiens): 4.49 ± 1.91 nM
Average Relative Resistance (RR) [6]: (7.6)
resistance of KB-PTX-15+099 cells ([6]; vs KB-3-1): 7.6 fold
IC50 [1, 12]: 0.6 nM
IC50 ([1]; Homo sapiens, KB-3-1, Table 6, read-out: KB-3-1 IC50): 0.594 ± 0.098 nM
IC50 ([1]; Homo sapiens, KB-3-1 parental, Table 3, read-out: KB-3-1 IC50, nM (N)): 0.55 ± 0.45 nM
IC50 ([1]; Homo sapiens, KB-3-1 parental, Table 8, read-out: KB-3-1 IC50): 0.44 ± 0.2 nM
IC50 ([2]; MDR1, read-out: KB-8-5 (MDR1+) IC50, nM (N)): 9.7 ± 6.6 nM
RR, relative resistance [2]: 18
resistance of KB-8-5 cells ([2]; KB-8-5 (KB-85) vs KB-3-1, in vitro): 18 fold
IC50 ([4]; read-out: KB-V1 (MDR1++) IC50, nM (N)): 368 ± 257 nM
RR, relative resistance [4]: 669
IC50 ([7]; Homo sapiens): 1.25 ± 0.76 nM
(RR) relative resistance vs. parental cells [7]: (3)
